In brackets after ≈: the same amount, converted by molar mass.
How the values were obtained:
[1] = system: Staphylococcus sp. and Enterococcus sp.; assay: MIC, summary statements on reference Gram-positive cocci; format: cell-based; details: Staphylococcus and Enterococcus species, reference Gram-positive cocci (range over strains)
Method: Sterile sheep blood defibrinated (GrasoBiotech). Co-trimoxazole (composition sulfamethoxazole 400 mg/trimethoprim 80 mg; WZF Polfa Poland). Ketoconazole (WZF Polfa Poland). Bacteria: Enterococcus hirae ATCC 10541 and Enterococcus faecalis ATCC 51299, Staphylococcus epidermidis ATCC 14990, Staphylococcus aureus ATCC 6538, clinical strains Staphylococcus aureus MRSA, clinical strains Staphylococcus sp. (MRCNS), clinical strain Staphylococcus epidermidis MRSE, clinical strain Enterococcus sp., Corynebacterium diphtheriae ZMF, Bacillus subtilis ATCC 6633, Escherichia coli ATCC 8739, Candida albicans ATCC 10231. Brain-heart infusion broth (BHI, Becton Dickinson) for Enterococcus hirae ATCC 10541 and Enterococcus faecalis ATCC 51299, BHI supplement with 10% bovine serum for Bacillus subtilis, Corynebacterium diphtheriae ZMF, Staphylococcus epidermidis ATCC 14990, Staphylococcus aureus ATCC 6538, clinical strains Staphylococcus aureus MRSA, clinical strains Staphylococcus sp. (CNS), clinical strain Staphylococcus epidermidis MRSE grew in Mueller-Hinton broth (MH cation-adjusted, Becton Dickinson) in an aerobic atmosphere at 37 °C for 48 h, in an aerobic atmosphere at 37 °C for 72 h. Candida albicans grew in Sabourauda broth (Sb, Becton Dickinson), in an aerobic atmosphere at 37 °C for 72 h. After determination of the bacterial viability, BHI blood agar plates, MH agar plates, and Sb agar plates were used.
The MIC determination for the reference and clinical strains was performed based on the methodology described by Kula et al.. The dry test samples were dissolved in dimethyl sulfoxide (DMSO) and diluted in water, resulting in a finale concentration of about 500 µg/mL. These solutions were diluted and added to the first well of each microtiter line. Dilution in geometric progression was done by transferring the mixture/dilution (100 μL) from the first to the twelfth well. An aliquot (100 μL) was discarded from the twelfth well. The final concentration of the samples used in the antimicrobial activity assay ranged from 125 to 0.006 µg/mL. Co-trimoxazole (for bacteria), with the composition sulfamethoxazole 400 mg/trimethoprim 80 mg was used as a reference compound in the concentration range of 20 000/4000 to 1/0.2 µg/mL. Ketoconazole (for fungi) was used as a reference compound in the concentration range of 125 to 0.006 µg/mL. Tests were incubated in adequate conditions described by Kula et al.. Diluent concentration had no effect on the activity of the tested compounds. All experiments were carried out three times.

[2] = system: cancer cells (HeLa, SKOV-3, MCF-7); assay: MTT assay, summary statements on the cancer cells; format: cell-based; details: Homo sapiens, cell line not specified
[3] = system: E. faecalis ATCC 51299; assay: MIC determination, reference strain (microdilution); format: cell-based; details: Enterococcus faecalis, ATCC51299; E. faecalis ATCC 51299; Co-trimoxazole as sulfamethoxazole/trimethoprim; read-out: MIC
[4] = system: S. epidermidis ATCC 14990; assay: Blood bacteriostatic activity test in sheep blood; format: cell-based, Staphylococcus epidermidis; details: 24 h, 37 °C, t0 1.70 × 10^7, control t24 5.10 × 10^8
Method: The manifestation of the bactericidal properties of chemical compounds is low minimum bactericidal concentration (MBC) values, which allows many groups of researchers to check the killing rate over time (time killing tests). It is an important element in determining the strength and speed of action of a compound on bacteria. Such studies are usually carried out in bacterial media, without additional factors influencing the results.
This step was carried out on two types of bacteria, S. aureus ATCC 6538 (Figure 8 and Table 2) and S. epidermidis ATCC 14 990 (Figure 9 and Table 3).
The number of bacteria at the initial time (t0) was 1.30 × 10^8 CFU/mL for S. aureus and 1.70 × 10^7 CFU/mL for S. epidermidis. Live bacterial cells were assayed after 24 h of incubation at 37 °C. […] Bacterial controls without compounds grew unhindered and after 24 h (t24) were 2.28 × 10^9 for S. aureus and 5.10 × 10^8 CFU/mL for S. epidermidis. […] It can be assumed that the tested compounds were not related to any fraction of the blood. Attention should be paid to the S. epidermidis tests and the difference between the number of bacteria at t0 and after 24 h of incubation for each compound. The number of bacteria at t0 was 1.70 × 10^7 CFU/mL and after 24 h it decreased to, e.g., 9.40 × 10^6 CFU/mL for compounds 16e and 7.80 × 10^6 CFU/mL for compound 17c. It can be assumed that the tested compounds after being added to blood samples prevented bacteria from multiplying. However, under these conditions, the phagocytic cells take up the bacteria. […] This can be explained by much greater variety of mechanisms of action of S. aureus against phagocytic cells than of S. epidermidis. This can be integrated with the bacterial cell compounds, e.g., protein A, as well as enzymes that bacteria can secrete outside the cell, e.g., coagulase and staphylokinase. Additional studies should be conducted to check how the tested compounds affect the enzymes secreted by S. aureus.
The assay was performed as previously described by with a modification. Pure sheep blood was used for the research. Two strains of bacteria S. aureus ATCC 6538 and S. epidermidis ATCC 14990 were used with an inoculum density of approximately 10^8 CFU/mL at 0 time. The final concentration of the compounds was 0.5, 1, 2, 4, and 8 µg/mL, and the final volume of the assay tube was 1 mL. Bacterial survivors were determined on MH agar plates (CFU/mL) at 24 h after exposure.

[5] = system: 24 h biofilm already formed by MRSA strains; assay: Effect on 24 h biofilm already formed, MRSA; format: cell-based, Staphylococcus aureus; details: MRSA12677
[6] = in vitro; details: sheep, defibrinated sheep blood diluted 1:9 v/v with PBS, pH 7
[7] = system: biofilm formation by MRSA clinical strains; assay: Inhibition of biofilm formation (crystal violet), MRSA; format: cell-based, Staphylococcus aureus; details: 2 × MIC

Cc1cc(S(=O)(=O)NC(=O)/C=C/c2ccc(Cl)cc2)c(SCc2cccc3ccccc23)cc1Cl [Compound 16d, (E)–N–{4–Chloro–5–methyl–2–[(naphthalen–1–yl)methylthio]phenylsulfonyl}–3–(4–chlorophenyl)acrylamide]
MIC [1]: 1 to 2 µg/mL (≈ 1.84 to 3.69 µM) | IC50 ([2]; MTT): < 10 µg/mL | IC50 ([2]; µg/mL bound converted): ≤ 20 µM | MIC [3]: 2 ± 0.87 µg/mL (≈ 3.69 µM) | Number of viable cells of Staphylococcus epidermidis ([4]; 1 µg/mL): 4.00 × 10^6 CFU/mL | Number of viable cells of Staphylococcus epidermidis ([4]; 2 µg/mL): 3.00 × 10^6 CFU/mL | Number of viable cells of Staphylococcus epidermidis ([4]; 4 µg/mL): 2.00 × 10^6 CFU/mL | Number of viable cells of Staphylococcus epidermidis ([4]; 8 µg/mL): 2.50 × 10^6 CFU/mL

COc1ccc(/C=C/C(=O)NS(=O)(=O)c2cc(C)c(Cl)cc2SCc2cccc3ccccc23)cc1F [Compound 16e, (E)–N–{4–Chloro–5–methyl–2–[(naphthalen–1–yl)methylthio]phenylsulfonyl}–3–(3–fluoro–4–methoxyphenyl)acrylamide]
Inhibition of biofilm already formed, in relation to the control ([5]; 2 × MIC and 4 × MIC): about 53% | hemolysis at 24 h, 31.25 µg/mL [6]: 12 to 20% | MIC [3]: 4 ± 0.15 µg/mL (≈ 7.19 µM) | Number of viable cells of Staphylococcus epidermidis ([4]; 1 µg/mL): 9.40 × 10^6 CFU/mL | Number of viable cells of Staphylococcus epidermidis ([4]; 2 µg/mL): 4.00 × 10^6 CFU/mL | Number of viable cells of Staphylococcus epidermidis ([4]; 4 µg/mL): 3.20 × 10^6 CFU/mL | Number of viable cells of Staphylococcus epidermidis ([4]; 8 µg/mL): 3.00 × 10^6 CFU/mL

Cc1cc(S(=O)(=O)NC(=O)/C=C/c2ccc(Cl)cc2)c(SCc2cc3c(cc2Cl)OCO3)cc1Cl [Compound 17c, (E)–N–{4–Chloro–2–[(6–chlorobenzo[d][1,3]dioxol–5–yl)methylthio]–5–methylphenylsulfonyl}–3–(4–chlorophenyl)acrylamide]
MIC [1]: 1 to 2 µg/mL (≈ 1.75 to 3.5 µM) | Inhibition of biofilm already formed, in relation to the control ([5]; 2 × MIC): about 40% | Inhibition of biofilm formation compared with the control ([7]; MRSA13318): 98% | Inhibition of biofilm formation compared with the control ([7]; MRSA21804): 61% | hemolysis at 24 h, 31.25 µg/mL [6]: 12 to 20% | MIC [3]: 2 ± 0.58 µg/mL (≈ 3.5 µM) | Number of viable cells of Staphylococcus epidermidis ([4]; 1 µg/mL): 7.80 × 10^6 CFU/mL | Number of viable cells of Staphylococcus epidermidis ([4]; 2 µg/mL): 4.25 × 10^6 CFU/mL | Number of viable cells of Staphylococcus epidermidis ([4]; 4 µg/mL): 1.40 × 10^7 CFU/mL | Number of viable cells of Staphylococcus epidermidis ([4]; 8 µg/mL): 5.10 × 10^6 CFU/mL

From article PMC10096175, “An In Vitro Antimicrobial, Anticancer and Antioxidant Activity of N–[(2–Arylmethylthio)phenylsulfonyl]cinnamamide Derivatives” (Molecules, 2023)
